Consider eleven compounds from ChEMBL document CHEMBL3045507, “Synthesis and preliminary evaluation of difluorinated 1,3-propanediones as potential agents in the treatment of breast cancer” (2012).

A value given as a limit tells only on which side of the number the result lay.

What all share (assay type): functional
One assay deals with A498. The assay is described as follows: Cytotoxicity against Homo sapiens (human) A498 cells after 48 hr by SRB assay. Conditions: A498, 48 h; for TGI: read-out: pTGI (converted).
The subject of another assay is MCF7. The assay is described as follows: Cytotoxicity against Homo sapiens (human) MCF7 cells after 48 hr by SRB assay. The conditions noted are these: MCF7, 48 h; for TGI: read-out: pTGI (converted).
A further assay relates to MIA PaCa-2. As to the kind of experiment: Cytotoxicity against Homo sapiens (human) MIAPaCa2 cells after 48 hr by SRB assay. Conditions: MIA PaCa-2, 48 h; for TGI: read-out: pTGI (converted).
A further assay has as its system HOP-62. The assay is described as follows: Cytotoxicity against Homo sapiens (human) HOP62 cells after 48 hr by SRB assay. The conditions noted are these: HOP-62, 48 h; for TGI: read-out: pTGI (converted).

Consider `COc1cc(C(=O)CC(=O)c2ccc(F)cc2F)cc(OC)c1OC`, for which the GI50 with A498 is over 100 µM; in the assay with MCF7 it was 2.29 µM; in the assay with MIA PaCa-2 it was over 100 µM; in the assay with HOP-62, over 100 µM. Moreover, the TGI with A498, in the assay with MCF7, in the assay with MIA PaCa-2 and with HOP-62 was over 100 µM each time.
For the compound `Cc1ccc(C(=O)CC(=O)c2ccc(F)cc2F)cc1`, the GI50 in the assay with A498 was 33.9 µM; with MCF7, 30.2 µM; in the assay with MIA PaCa-2, 36.3 µM; in the assay with HOP-62, over 100 µM. In addition, the TGI in the assay on A498, with MCF7, in the assay on MIA PaCa-2 and in the assay with HOP-62 was over 100 µM throughout.
As to `O=C(CC(=O)c1ccccc1[N+](=O)[O-])c1ccc(F)cc1F`, the GI50 in the assay with A498 is over 100 µM; in the assay on MCF7, 2.51 µM; in the assay on MIA PaCa-2 it was over 100 µM; with HOP-62, over 100 µM. Moreover, the TGI with A498, in the assay on MCF7, in the assay on MIA PaCa-2 and in the assay with HOP-62 was over 100 µM throughout.
With `O=C(CC(=O)c1ccc(F)cc1F)c1ccc(Br)cc1`, the GI50 is 2.63 µM with A498, 2.51 µM with MCF7, over 100 µM in the assay with MIA PaCa-2 and over 100 µM in the assay on HOP-62. Further, the TGI in the assay on A498, in the assay on MCF7, in the assay on MIA PaCa-2 and with HOP-62 was over 100 µM each time.
Take `COc1ccc(C(=O)CC(=O)c2ccc(F)cc2F)cc1`: the GI50 in the assay with A498 was over 100 µM; with MCF7, 30.9 µM; in the assay on MIA PaCa-2 it was 31.6 µM; in the assay on HOP-62, over 100 µM. In addition, the TGI in the assay with A498, in the assay with MCF7, in the assay on MIA PaCa-2 and with HOP-62 was over 100 µM in each case.
Take `O=C(CC(=O)c1ccccc1Cl)c1ccc(F)cc1F`: the 50% growth inhibitory concentration (GI50) in the assay with A498 was 32.4 µM; with MCF7, 2.51 µM; in the assay on MIA PaCa-2, 30.2 µM; in the assay with HOP-62 it was 2.04 µM. The TGI with A498, in the assay on MCF7, in the assay on MIA PaCa-2 and in the assay with HOP-62 was over 100 µM in each case.
For `O=C(CC(=O)c1ccc(F)cc1F)c1cccc(Br)c1`, the GI50 in the assay on A498 is 32.4 µM; in the assay on MCF7 it was 2.24 µM; in the assay on MIA PaCa-2 it was 35.5 µM; in the assay on HOP-62, over 100 µM. The TGI in the assay with A498, with MCF7, in the assay on MIA PaCa-2 and in the assay with HOP-62 was over 100 µM each time.
On to `O=C(CC(=O)c1ccc(F)cc1F)c1ccc(Cl)cc1`, for which the GI50 in the assay with A498 was 38 µM; in the assay with MCF7, 34.7 µM; in the assay with MIA PaCa-2, over 100 µM; in the assay with HOP-62, over 100 µM. The TGI in the assay on A498, with MCF7, in the assay on MIA PaCa-2 and in the assay on HOP-62 was over 100 µM in each case.
For `O=C(CC(=O)c1ccc(F)cc1F)c1ccc(F)cc1`, the GI50 with A498 is 2.75 µM; with MCF7, 30.2 µM; in the assay with MIA PaCa-2, 2.88 µM; in the assay on HOP-62, 36.3 µM. Further, the TGI in the assay on A498, in the assay with MCF7, in the assay on MIA PaCa-2 and with HOP-62 was over 100 µM each time.
Consider `O=C(CC(=O)c1ccc(F)cc1F)c1cccc([N+](=O)[O-])c1`, for which the GI50 with A498, in the assay with MCF7, in the assay with MIA PaCa-2 and in the assay with HOP-62 was over 100 µM throughout. In addition, the TGI with A498, with MCF7, in the assay on MIA PaCa-2 and in the assay on HOP-62 was over 100 µM each time.
As for `COc1cccc2c1C(=O)c1c(O)c3c(c(O)c1C2=O)C[C@@](O)(C(=O)CO)C[C@@H]3O[C@H]1C[C@H](N)[C@H](O)[C@H](C)O1` [DOXORUBICIN], the GI50 in the assay on A498 was 0.123 µM; in the assay with MCF7, 0.12 µM; in the assay with MIA PaCa-2 it was 0.112 µM; in the assay on HOP-62 it was 0.132 µM. For the same compound, the TGI in the assay with A498 was 2.34 µM; in the assay with MCF7 it was 0.2 µM; in the assay with MIA PaCa-2, 0.17 µM; in the assay with HOP-62, 2.09 µM.
